This note sets out measurements from patent US20120220577A1, “GLYCINE B ANTAGONISTS” (Merz Pharma GmbH & Co KgaA, priority 2009, published 2012).

Structures are written as SMILES.

The target of assay [1] is T1, NMDA receptor glycine B site (Rattus norvegicus, UniProt P35439). Briefly: Calcium FLIPR studies, rat cortical neurons (NMDA/D-Serine induced intracellular calcium). Also on record: Primary neurons are prepared from cortices of embryonal rats at day 17 of pregnancy; endogenous in cells; host or cells: primary rat cortical neurons (E17, 11-13 DIV). It counts as cell-based. The note with it: rat cortical neurons; stimulation with 30 μM NMDA and 1 μM D-Serine; antagonist pre-incubated 10 min; read-out: NMDA-FLIPR-rCTX-NAM - IC50. In outline: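 Embryonic (E17) Sprague-Dawley rat cortical neurons, 11-13 days in vitro, loaded with Calcium-4 dye (pH 7.3) and pre-incubated with antagonist (5 concentrations) for 10 min at room temperature, then stimulated with 30 μM NMDA plus 1 μM D-Serine. FLIPR AUC as percent of agonist control; IC50 by four-parameter logistic fit.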
(In general: Calcium assays in cells follow changes in intracellular calcium, usually with a dye or a luminescent sensor.)

Assay [2] deals with T1, NMDA receptor glycine B site. In words: Whole cell patch-clamp recordings, rat hippocampal neurons (NMDA/D-Serine currents). It counts as cell-based. Conditions: NMDA 200 μM + D-Serine 1 μM, -70 mV, read-out: NMDA-PC-r-HIC-NAM - IC50. The protocol:
Antagonistic potencies of the test compounds are functionally evaluated using electrophysiological whole cell patch-clamp recordings and/or fluorometric intracellular Ca^2+-imaging (FLIPR) screens.
Cell preparation is performed as described by Parsons, et al. (Neuropharmacology, 1998, 37(6), 719-727). The female Sprague-Dawley rat is anaesthetised by placing in a saturated CO2-euthanasia chamber under further quiet CO2-influx. Under these conditions the rat loses consciousness after a few seconds and is then sacrificed by cervical dislocation. After opening the abdominal cavity, embryos (E20) are removed and stored in ice cold Ca^2+- and Mg^2+-free Hank's Buffered Salt Solution (pH 7.3), containing 4 g/l glucose (HBSS-CMF). Hippocampi are then isolated from the brains of at least 8 embryos after decapitation, transferred into ice cold HBSS-CMF and washed 3 to 4 times.
Hippocampi are pre-incubated for 8 min with a 0.66% trypsin (Sigma-Aldrich) and 0.1% (20 U/ml) DNAase solution (Sigma-Aldrich) in Ca^2+-free Phosphate Buffered Saline (PBS-CF) and washed 3 times with HBSS-CMF. Cells are then mechanically dissociated by trituration in a PBS-CF solution containing 0.05% (10 U/ml) DNAase and 0.3% of the trypsin inhibitor ovomucoid (all from Sigma-Aldrich). The cells are then centrifuged at 180×g for 10 minutes, and the cell pellet re-suspended in basal Minimum essential medium (MEM, Invitrogen, Karlsruhe, Germany), again carefully triturated to ensure maximal dissociation and finally plated in the flexiPERM inserts (Thermo Fisher Scientific, Langenselbold, Germany) at a density of 15×10^3 cells/cm^2 (0.5 ml/insert) onto poly-DL-ornithine (Sigma) and mouse laminin (Invitrogen) pre-coated plastic petri dishes. After 1 hour the cells become attached to the bottom of the dish and the inserts may be removed. The cells are then nourished with 2 ml MEM supplemented with 5% foetal calf serum (FCS) and 5% horse serum and incubated at 37° C. with 95% air and 5% CO2 at 95% humidity. After 4 days in vitro (DIV) further glial mitosis is inhibited by adding 10 μl of AraC (5 μM endconcentration). The medium is completely exchanged after an additional 2 DIV and again, but only partly (50%), after 8 DIV. The cells are used for electrophysiological recordings after 11-15 DIV.
Cells are visualised using an inverted microscope and selected for patching based upon their position and morphology. Voltage clamp recordings are made in the whole cell configuration of the patch clamp technique at a holding potential of −70 mV with the aid of an EPC-10 amplifier in combination with pipette manipulator. Patch clamp pipettes are pulled from borosilicate glass using a horizontal puller (P-97 Puller, Sutter Instruments, USA) and, when filled with intracellular solution, have resistances of 1-4 MΩ.
Solutions are delivered via a home-made gravity driven very fast perfusion system (<10 ms) including valves to switch flow on and off in combination with a stepper motor-driven double-barrelled theta glass application pipette in order to expose cells to either agonist-free or agonist-containing solutions in presence or absence of antagonist.
The intracellular solution used consists of: 120 mM CsCl, 10 mM EGTA, 1 mM MgCl2, 200 μM CaCl2, 10 mM glucose and 22 mM tetraethyl ammonium chloride (TEA-CL). The corresponding extracellular bath solution contains: 140 mM NaCl, 3 mM KCl, 10 mM glucose, 10 mM HEPES, 1.5 mM CaCl2 and 4.5 mM sucrose (all from Sigma-Aldrich) pH 7.3, and is supplemented with 0.3 μM tetrodotoxin (TTX, Tocris, Bristol, U.K.) to block voltage-activated sodium channels and 0.25 μM bicuculline (Sigma-Aldrich) to block GABAA receptors. […]

For `O=C(O)COc1cc(C(=O)O)cc2cc(Cl)cc(Cl)c12` [Example 1, 4-Carboxymethoxy-5,7-dichloronaphthalene-2-carboxylic acid], the IC50 (commonly the concentration needed to halve the response being measured) in assay [1] came to 6200 nM; in assay [2], 850 nM.

As to `O=C(COc1cc(C(=O)O)cc2cc(Cl)cc(Cl)c12)Nc1ccccc1C(=O)O` [Example 3, 4-[(2-Carboxy-phenylcarbamoyl)-methoxy]-5,7-dichloro-naphthalene-2-carboxylic acid], the IC50 came to 3270 nM in assay [1] and 493 nM in assay [2].

As to `O=C(COc1cc(C(=O)O)cc2cc(Cl)cc(Cl)c12)Nc1ccccc1CO` [Example 5, 5,7-Dichloro-4-[(2-hydroxymethylphenylcarbamoyl)-methoxy]-naphthalene-2-carboxylic acid], the figures for the IC50 in assay [1] and in assay [2] were 7080 nM and 258 nM, respectively.

Regarding `O=C(O)Cc1ccc(NC(=O)COc2cc(C(=O)O)cc3cc(Cl)cc(Cl)c23)cc1` [Example 7, 4-[(4-Carboxymethylphenylcarbamoyl)-methoxy]-5,7-dichloronaphthalene-2-carboxylic acid], the figures for the IC50 in assay [1] and in assay [2] were 4010 nM and 510 nM, respectively.

For `O=C(O)Cc1cccc(NC(=O)COc2cc(C(=O)O)cc3cc(Cl)cc(Cl)c23)c1` [Example 13, 4-[(3-Carboxymethylphenylcarbamoyl)-methoxy]-5,7-dichloronaphthalene-2-carboxylic acid], the IC50 turned out to be 1960 nM in assay [1] and 178 nM in assay [2].

In the case of `CN(C(=O)COc1cc(C(=O)O)cc2cc(Cl)cc(Cl)c12)c1ccc(C(=O)O)cc1` [Example 14, 4-{[(4-Carboxy-phenyl)-methylcarbamoyl]-methoxy}-5,7-dichloronaphthalene-2-carboxylic acid], the IC50 in assay [1] turned out to be 7330 nM; in assay [2], 727 nM.

For the molecule `O=C(O)Cc1ccccc1NC(=O)COc1cc(C(=O)O)cc2cc(Cl)cc(Cl)c12` [Example 15, 4-[(2-Carboxymethylphenylcarbamoyl)-methoxy]-5,7-dichloronaphthalene-2-carboxylic acid], the IC50 came out at 2680 nM in assay [1] and 356 nM in assay [2].

As to `O=C(COc1cc(C(=O)O)cc2cc(Cl)cc(Cl)c12)NCc1ccccc1` [Example 18, 4-(Benzylcarbamoylmethoxy)-5,7-dichloro-naphthalene-2-carboxylic acid], the IC50 was 9560 nM in assay [1] and 465 nM in assay [2].

`CN(C(=O)COc1cc(C(=O)O)cc2cc(Cl)cc(Cl)c12)c1ccccc1C(=O)O` [Example 20, 4-{[(2-Carboxyphenyl)-methylcarbamoyl]-methoxy}-5,7-dichloronaphthalene-2-carboxylic acid]: the IC50 turned out to be 1220 nM in assay [1] and 198 nM in assay [2].

`NCc1ccc(NC(=O)COc2cc(C(=O)O)cc3cc(Cl)cc(Cl)c23)c(OCC(=O)O)c1` [Example 34, 4-[(4-Aminomethyl-2-carboxymethoxyphenylcarbamoyl)-methoxy]-5,7-dichloronaphthalene-2-carboxylic acid]: the values for the IC50 in assay [1] and in assay [2] were 211 nM and 23 nM, respectively.

On to `O=C(O)COc1ccccc1NC(=O)COc1cc(C(=O)O)cc2cc(Cl)cc(Cl)c12` [Example 42, 4-[(2-Carboxymethoxyphenylcarbamoyl)-methoxy]-5,7-dichloronaphthalene-2-carboxylic acid], for which the IC50 in assay [1] is 105 nM; in assay [2], 50 nM.

On to `O=C(O)c1cc(OCC(=O)N2CCCc3ccccc32)c2c(Cl)cc(Cl)cc2c1` [Example 50, 5,7-Dichloro-4-[2-(3,4-dihydro-2H-quinolin-1-yl)-2-oxo-ethoxy]-naphthalene-2-carboxylic acid], for which the IC50 in assay [1] amounted to 7410 nM; in assay [2] it was 542 nM.

For the molecule `O=C(COc1cc(C(=O)O)cc2cc(Cl)cc(Cl)c12)Nc1ccccc1OCC(=O)N1CCOCC1` [Example 54, 5,7-Dichloro-4-{[2-(2-morpholin-4-yl-2-oxo-ethoxy)-phenylcarbamoyl]-methoxy}-naphthalene-2-carboxylic acid], the results for the IC50 in assay [1] and in assay [2] were 1700 nM and 169 nM, respectively.

On to `O=C(O)COc1ccccc1CNC(=O)COc1cc(C(=O)O)cc2cc(Cl)cc(Cl)c12` [Example 59, 4-[(2-Carboxymethoxy-benzylcarbamoyl)-methoxy]-5,7-dichloro-naphthalene-2-carboxylic acid], for which the IC50 in assay [1] was determined as 880 nM; in assay [2], 59 nM.

Consider `O=C(COc1cc(C(=O)O)cc2cc(Cl)cc(Cl)c12)Nc1ccccc1OCc1nnn[nH]1` [Example 60, 5,7-Dichloro-4-{[2-(1H-tetrazol-5-ylmethoxy)-phenylcarbamoyl]-methoxy}-naphthalene-2-carboxylic acid], for which the IC50 in assay [1] worked out at 1560 nM; in assay [2], 65 nM.

For the molecule `COCC(Oc1cc(C(=O)O)cc2cc(Cl)cc(Cl)c12)C(=O)Nc1ccccc1OC` (stereo not shown) [Example 74, 5,7-Dichloro-4-[2-methoxy-1-(2-methoxy-phenylcarbamoyl)-ethoxy]-naphthalene-2-carboxylic acid], the values for the IC50 in assay [1] and in assay [2] were 5460 nM and 288 nM, respectively.

Take `O=C(O)c1cc(OCC(=O)N2CCOc3c(CO)cccc32)c2c(Cl)cc(Cl)cc2c1` [Example 78, 5,7-Dichloro-4-[2-(8-hydroxymethyl-2,3-dihydro-benzo[1,4]oxazin-4-yl)-2-oxo-ethoxy]-naphthalene-2-carboxylic acid]: the IC50 in assay [1] came out at 4130 nM; in assay [2], 253 nM.
